Drawing on patent publication US20140120083A1, “TREATMENT OF CANCERS USING PI3 KINASE ISOFORM MODULATORS” (INFINITY PHARMACEUTICALS, INC., priority 2012, published 2014), this text covers IC50 for 39 molecules.

Assay type in all cases: biochemical
One test addresses T1, PI3K γ (Homo sapiens, UniProt P48736).
T1 construct: purchased Sigma
As to the kind of experiment: In vitro IC50, PI3K γ. The text has this:
(§1) An exemplary system is PI 3-Kinase (human) HTRF™ Assay from Upstate.

In the next test the target is T2, PI3K α (Homo sapiens, UniProt P42336).
T2 construct: purchased Upstate
T2 sequence (P42336 whole entry): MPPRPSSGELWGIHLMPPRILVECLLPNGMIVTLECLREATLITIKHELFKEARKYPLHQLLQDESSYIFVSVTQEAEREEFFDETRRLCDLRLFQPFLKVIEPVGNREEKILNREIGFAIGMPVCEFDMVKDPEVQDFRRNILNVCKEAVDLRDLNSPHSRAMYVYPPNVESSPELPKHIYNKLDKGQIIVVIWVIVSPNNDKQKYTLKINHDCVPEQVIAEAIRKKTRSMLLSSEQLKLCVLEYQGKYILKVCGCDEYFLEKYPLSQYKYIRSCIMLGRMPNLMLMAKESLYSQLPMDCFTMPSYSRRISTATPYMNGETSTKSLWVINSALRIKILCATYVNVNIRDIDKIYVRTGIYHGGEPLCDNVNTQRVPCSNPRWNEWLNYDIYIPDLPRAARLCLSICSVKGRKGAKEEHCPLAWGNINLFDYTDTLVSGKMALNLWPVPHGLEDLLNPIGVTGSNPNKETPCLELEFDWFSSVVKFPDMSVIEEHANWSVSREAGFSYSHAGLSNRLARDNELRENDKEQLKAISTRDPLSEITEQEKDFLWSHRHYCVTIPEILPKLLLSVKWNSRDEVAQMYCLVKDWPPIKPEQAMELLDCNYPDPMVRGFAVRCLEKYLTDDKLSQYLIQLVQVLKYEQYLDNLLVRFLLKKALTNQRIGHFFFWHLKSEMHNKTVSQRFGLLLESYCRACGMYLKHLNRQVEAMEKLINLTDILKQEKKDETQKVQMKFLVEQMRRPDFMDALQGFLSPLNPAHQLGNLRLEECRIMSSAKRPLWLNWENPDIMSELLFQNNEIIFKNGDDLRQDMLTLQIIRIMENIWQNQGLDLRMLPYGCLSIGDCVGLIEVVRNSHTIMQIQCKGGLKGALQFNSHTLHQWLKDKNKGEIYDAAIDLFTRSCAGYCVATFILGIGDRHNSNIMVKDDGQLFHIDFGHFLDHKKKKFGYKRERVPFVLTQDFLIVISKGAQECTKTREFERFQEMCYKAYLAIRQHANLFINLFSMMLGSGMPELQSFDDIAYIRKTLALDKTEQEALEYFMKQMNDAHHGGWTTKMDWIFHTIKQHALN
T2 sequence (P27986 whole entry partner): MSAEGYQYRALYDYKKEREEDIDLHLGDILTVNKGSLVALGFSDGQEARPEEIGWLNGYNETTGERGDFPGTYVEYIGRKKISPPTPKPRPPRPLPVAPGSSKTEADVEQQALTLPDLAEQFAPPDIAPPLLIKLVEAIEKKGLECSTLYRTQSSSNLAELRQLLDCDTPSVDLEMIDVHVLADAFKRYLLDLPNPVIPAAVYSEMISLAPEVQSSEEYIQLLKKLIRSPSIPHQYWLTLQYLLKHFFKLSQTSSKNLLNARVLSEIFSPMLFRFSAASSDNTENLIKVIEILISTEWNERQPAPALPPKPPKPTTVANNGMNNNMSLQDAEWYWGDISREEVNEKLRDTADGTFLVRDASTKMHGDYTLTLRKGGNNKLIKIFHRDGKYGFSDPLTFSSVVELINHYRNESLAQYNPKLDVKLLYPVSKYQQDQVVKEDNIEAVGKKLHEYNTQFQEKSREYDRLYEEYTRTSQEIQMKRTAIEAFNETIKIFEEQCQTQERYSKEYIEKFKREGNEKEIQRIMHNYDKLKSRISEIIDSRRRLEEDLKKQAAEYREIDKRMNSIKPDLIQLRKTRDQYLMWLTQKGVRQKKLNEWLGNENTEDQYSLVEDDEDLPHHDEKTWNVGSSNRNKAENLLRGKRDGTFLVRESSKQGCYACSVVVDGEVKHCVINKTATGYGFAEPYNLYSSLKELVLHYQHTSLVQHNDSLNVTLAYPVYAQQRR
Put plainly: In vitro IC50, PI3K α.
Source text: as §1

The next test concerns the target PI3K δ (Homo sapiens, UniProt O00329). As to the kind of experiment: In vitro IC50, PI3K δ. The arrangement: purchased Upstate.
Source text: as §1

A further test has as its target PI3K β (Homo sapiens, UniProt P42338). Put plainly: In vitro IC50, PI3K β.
Source text: as §1

SMILES strings stand for the structures. pIC50: −log10 of the molar value.

Chain of PI3K β (P42338 whole entry): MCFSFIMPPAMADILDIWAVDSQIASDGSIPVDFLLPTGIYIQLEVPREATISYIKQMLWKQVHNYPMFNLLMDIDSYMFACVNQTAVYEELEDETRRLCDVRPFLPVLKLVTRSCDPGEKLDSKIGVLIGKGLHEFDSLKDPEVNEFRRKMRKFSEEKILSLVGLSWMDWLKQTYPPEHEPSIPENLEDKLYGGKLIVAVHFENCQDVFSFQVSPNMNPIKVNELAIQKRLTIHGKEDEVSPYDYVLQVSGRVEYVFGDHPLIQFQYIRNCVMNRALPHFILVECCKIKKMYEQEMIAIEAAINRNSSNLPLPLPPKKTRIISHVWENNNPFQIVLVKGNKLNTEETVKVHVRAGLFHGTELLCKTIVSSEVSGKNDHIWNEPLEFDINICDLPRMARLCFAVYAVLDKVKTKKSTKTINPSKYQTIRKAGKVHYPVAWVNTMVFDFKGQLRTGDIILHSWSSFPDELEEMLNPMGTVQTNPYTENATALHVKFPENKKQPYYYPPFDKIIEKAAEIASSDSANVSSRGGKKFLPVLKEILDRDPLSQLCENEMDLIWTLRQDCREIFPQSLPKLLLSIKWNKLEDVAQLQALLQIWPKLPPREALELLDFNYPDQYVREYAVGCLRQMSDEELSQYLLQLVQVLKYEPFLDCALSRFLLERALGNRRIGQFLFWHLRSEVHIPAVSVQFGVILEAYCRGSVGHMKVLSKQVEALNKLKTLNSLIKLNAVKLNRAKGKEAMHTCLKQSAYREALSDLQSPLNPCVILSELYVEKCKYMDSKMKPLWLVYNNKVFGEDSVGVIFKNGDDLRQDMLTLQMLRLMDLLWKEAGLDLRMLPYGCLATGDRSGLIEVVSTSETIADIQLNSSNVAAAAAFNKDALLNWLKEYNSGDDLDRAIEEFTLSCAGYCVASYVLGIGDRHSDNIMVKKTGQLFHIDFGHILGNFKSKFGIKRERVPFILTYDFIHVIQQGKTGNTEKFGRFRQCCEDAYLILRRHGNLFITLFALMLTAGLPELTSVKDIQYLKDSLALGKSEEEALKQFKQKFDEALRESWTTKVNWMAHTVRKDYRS
Chain of PI3K δ (O00329 whole entry): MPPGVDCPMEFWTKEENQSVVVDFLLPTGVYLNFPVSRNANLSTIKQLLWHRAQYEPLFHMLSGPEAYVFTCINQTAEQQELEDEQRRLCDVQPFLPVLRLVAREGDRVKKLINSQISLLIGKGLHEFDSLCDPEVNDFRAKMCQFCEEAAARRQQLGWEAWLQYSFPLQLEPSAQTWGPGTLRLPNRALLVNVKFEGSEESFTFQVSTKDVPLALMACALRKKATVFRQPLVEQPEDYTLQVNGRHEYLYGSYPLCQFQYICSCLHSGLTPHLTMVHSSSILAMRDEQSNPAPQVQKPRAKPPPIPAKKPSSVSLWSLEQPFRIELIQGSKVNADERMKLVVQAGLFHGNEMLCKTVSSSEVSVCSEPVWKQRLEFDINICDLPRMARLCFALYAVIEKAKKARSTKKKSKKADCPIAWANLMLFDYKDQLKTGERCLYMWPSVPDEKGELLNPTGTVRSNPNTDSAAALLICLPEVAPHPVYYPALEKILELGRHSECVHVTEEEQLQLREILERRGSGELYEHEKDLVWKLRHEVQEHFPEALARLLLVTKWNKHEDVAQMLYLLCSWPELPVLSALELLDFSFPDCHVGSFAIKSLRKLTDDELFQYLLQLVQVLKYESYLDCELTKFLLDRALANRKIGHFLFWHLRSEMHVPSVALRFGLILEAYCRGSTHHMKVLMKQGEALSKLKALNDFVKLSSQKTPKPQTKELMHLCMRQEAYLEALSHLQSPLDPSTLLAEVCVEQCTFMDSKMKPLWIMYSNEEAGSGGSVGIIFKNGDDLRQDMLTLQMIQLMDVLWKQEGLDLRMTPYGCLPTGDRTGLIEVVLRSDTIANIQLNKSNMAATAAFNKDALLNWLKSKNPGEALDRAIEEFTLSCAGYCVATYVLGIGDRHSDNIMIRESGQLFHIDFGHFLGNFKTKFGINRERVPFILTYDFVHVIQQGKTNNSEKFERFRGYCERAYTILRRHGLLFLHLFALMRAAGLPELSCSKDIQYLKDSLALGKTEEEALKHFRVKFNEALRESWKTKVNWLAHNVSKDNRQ
Chain of PI3K δ (P27986 whole entry partner): as the sequence (P27986 whole entry partner) above
T1 sequence (P48736 whole entry): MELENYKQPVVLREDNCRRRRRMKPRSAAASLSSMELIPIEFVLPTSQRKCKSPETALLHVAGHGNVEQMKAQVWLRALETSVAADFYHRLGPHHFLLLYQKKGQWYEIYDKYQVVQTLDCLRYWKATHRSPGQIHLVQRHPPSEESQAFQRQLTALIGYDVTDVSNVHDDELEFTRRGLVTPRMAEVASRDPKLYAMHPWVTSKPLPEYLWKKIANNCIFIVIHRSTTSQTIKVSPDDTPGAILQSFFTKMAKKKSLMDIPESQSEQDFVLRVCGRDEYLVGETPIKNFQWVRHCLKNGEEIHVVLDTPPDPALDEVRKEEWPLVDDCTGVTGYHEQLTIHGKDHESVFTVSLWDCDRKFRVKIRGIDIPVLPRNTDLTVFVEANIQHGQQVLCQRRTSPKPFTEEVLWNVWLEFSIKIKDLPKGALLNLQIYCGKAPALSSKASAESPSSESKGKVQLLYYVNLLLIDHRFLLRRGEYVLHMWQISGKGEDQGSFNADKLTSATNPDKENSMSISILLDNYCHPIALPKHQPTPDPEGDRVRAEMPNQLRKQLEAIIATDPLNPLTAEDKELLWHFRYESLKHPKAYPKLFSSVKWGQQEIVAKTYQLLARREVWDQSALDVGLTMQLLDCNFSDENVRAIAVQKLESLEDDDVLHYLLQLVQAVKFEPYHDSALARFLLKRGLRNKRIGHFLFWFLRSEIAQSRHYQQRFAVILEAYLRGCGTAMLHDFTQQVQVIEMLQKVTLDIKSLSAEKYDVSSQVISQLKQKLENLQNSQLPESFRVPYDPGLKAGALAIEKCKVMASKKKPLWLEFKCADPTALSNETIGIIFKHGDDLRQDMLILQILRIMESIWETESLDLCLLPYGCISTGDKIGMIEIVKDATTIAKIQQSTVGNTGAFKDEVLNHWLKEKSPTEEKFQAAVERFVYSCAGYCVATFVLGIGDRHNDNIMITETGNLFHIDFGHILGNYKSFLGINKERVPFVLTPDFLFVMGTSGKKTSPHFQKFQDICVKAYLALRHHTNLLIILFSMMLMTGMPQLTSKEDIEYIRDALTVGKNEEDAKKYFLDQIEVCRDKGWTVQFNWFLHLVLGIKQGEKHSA

One may read the pIC50 as the IC50 on a negative log10 scale, so that one unit is a factor of ten. High values mean a small IC50, low ones a large IC50. `COc1ccccc1-n1c(Cn2nc(I)c3c(N)ncnc32)cc2cccc(C)c2c1=O` [Compound 70]: the pIC50 against PI3K γ was above 6.00; against PI3K α, below 5.00; on PI3K δ, above 7.00; at PI3K β, below 5.00.

As to `Cc1cccc2cc([C@H](C)Nc3nc(Cl)nc4[nH]cnc34)n(C3CC3)c(=O)c12` [Compound 268], the pIC50 against PI3K γ was above 6.00; at PI3K α, below 5.00; at PI3K δ, above 7.00; against PI3K β, above 7.00.

In the case of `Cc1cccc2cc(Cn3nc(I)c4c(N)ncnc43)n(C)c(=O)c12` [Compound 107], the pIC50 is above 5.00 against PI3K γ, below 5.00 at PI3K α, above 6.00 against PI3K δ and below 5.00 at PI3K β.

In the case of `Cc1ccccc1-n1c(Cn2nc(-c3nn[nH]n3)c3c(N)ncnc32)cc2cccc(C)c2c1=O` [Compound 207], the negative logarithm of the IC50 (pIC50) is above 7.00 against PI3K γ, above 5.00 on PI3K α, above 7.00 at PI3K δ and above 5.00 at PI3K β.

Regarding `Cc1cccc2cc(Cn3nc(-c4cnn(CCO)c4)c4c(N)ncnc43)n(-c3ccccc3F)c(=O)c12` [Compound 162], the pIC50 on PI3K γ was above 6.00; against PI3K α, below 5.00; against PI3K δ, above 7.00; against PI3K β, below 5.00.

As to `CC(=O)Nc1nc2cc(-c3nn(Cc4cc5cccc(C)c5c(=O)n4-c4ccccc4)c4ncnc(N)c34)ccc2s1` [Compound 275], the pIC50 was above 6.00 on PI3K γ, below 5.00 at PI3K α, above 6.00 on PI3K δ and below 5.00 at PI3K β.

Take `Cc1cccc2cc(Cn3nc(I)c4c(N)ncnc43)n(C3CCCC3)c(=O)c12` [Compound 57]: the pIC50 is above 5.00 against PI3K γ, below 5.00 against PI3K α, above 6.00 on PI3K δ and below 5.00 on PI3K β.

Regarding `Cc1ccccc1-n1c(Cn2nc(-c3ccc(F)cc3)c3c(N)ncnc32)cc2cccc(C)c2c1=O` [Compound 27], the pIC50 was above 6.00 against PI3K γ, below 5.00 against PI3K α, above 5.00 at PI3K δ and below 5.00 on PI3K β.

For `Cc1cccc2cc(Cn3nc(-c4ccc5oc(N)nc5c4)c4c(N)ncnc43)n(-c3ccccc3)c(=O)c12` [Compound 205], the pIC50 is above 7.00 against PI3K γ, above 5.00 against PI3K α, above 7.00 on PI3K δ and above 5.00 on PI3K β.

For the molecule `Cc1cccc2cc(Cn3nc(-c4cn[nH]c4)c4c(N)ncnc43)n(-c3ccccc3C(C)C)c(=O)c12` [Compound 185], the pIC50 at PI3K γ was above 7.00; against PI3K α, above 5.00; against PI3K δ, above 7.00; on PI3K β it was above 6.00.

Turning to `Cc1cccc2cc([C@H](C)Nc3nc(Cl)ncc3Cl)n(-c3ccccc3)c(=O)c12` [Compound 248], the pIC50 on PI3K γ was above 5.00; on PI3K α, below 5.00; against PI3K δ it was above 6.00; against PI3K β it was below 5.00.

Take `Cc1cccc2cc(Cn3nc(I)c4c(N)ncnc43)n(C3CCC3)c(=O)c12` [Compound 105]: the pIC50 was above 5.00 against PI3K γ, below 5.00 on PI3K α, above 7.00 against PI3K δ and below 5.00 at PI3K β.

With `Cc1cccc2cc([C@H](C)Nc3nc(N)ncc3F)n(C3CC3)c(=O)c12` [Compound 281], the pIC50 on PI3K γ was below 5.00; on PI3K α it was below 5.00; against PI3K δ it was above 5.00; against PI3K β it was above 5.00.

Regarding `Cc1cccc2cc([C@H](C)Nc3ncnc4[nH]ccc34)n(C3CC3)c(=O)c12` [Compound 273], the pIC50 was above 7.00 against PI3K γ, above 5.00 against PI3K α, above 7.00 on PI3K δ and above 7.00 against PI3K β.

`Cc1cccc2cc([C@H](C)Nc3cc(N)nc(Cl)n3)n(C3CC3)c(=O)c12` [Compound 283]: the pIC50 against PI3K γ, at PI3K α, on PI3K δ and at PI3K β was below 5.00 in each case.

As for `Cc1cccc2cc(Cn3nc(-c4cccc(O)c4)c4c(N)ncnc43)n(C3CC3)c(=O)c12` [Compound 102], the pIC50 was above 7.00 on PI3K γ, above 6.00 on PI3K α, above 7.00 on PI3K δ and above 6.00 against PI3K β.

On to `Cc1cccc2cc([C@H](C)Nc3nc(F)nc4[nH]cnc34)n(C3CC3)c(=O)c12` [Compound 279], for which the pIC50 against PI3K γ was above 6.00; at PI3K α, above 5.00; on PI3K δ it was above 7.00; against PI3K β it was above 7.00.

Turning to `COc1ccc(-c2nn(Cc3cc4cccc(C)c4c(=O)n3-c3ccccc3C)c3ncnc(N)c23)cc1OC` [Compound 44], the pIC50 against PI3K γ was above 7.00; against PI3K α, below 5.00; against PI3K δ, above 6.00; against PI3K β it was below 5.00.

Regarding `Cc1cccc(C)c1-n1c(CNc2ncnc3[nH]cnc23)cc2cccc(C)c2c1=O` [Compound 218], the pIC50 is above 6.00 on PI3K γ, below 5.00 against PI3K α, above 7.00 against PI3K δ and below 5.00 on PI3K β.

In the case of `COc1ccccc1-n1c(Cn2nc(-c3cc(O)cc(F)c3)c3c(N)ncnc32)cc2cccc(C)c2c1=O` [Compound 84], the pIC50 was above 7.00 at PI3K γ, above 5.00 at PI3K α, above 7.00 on PI3K δ and above 5.00 at PI3K β.

Take `Cc1cccnc1-n1c(Cn2nc(-c3cccc(O)c3)c3c(N)ncnc32)cc2cccc(C)c2c1=O` [Compound 73]: the pIC50 against PI3K γ was above 6.00; on PI3K α, below 5.00; against PI3K δ it was above 7.00; against PI3K β, below 5.00.

Regarding `Cc1ccccc1-n1c(Cn2nc(I)c3c(N)ncnc32)cc2cccc(F)c2c1=O` [Compound 42], the pIC50 at PI3K γ is above 5.00; against PI3K α it was below 5.00; against PI3K δ, above 6.00; against PI3K β, below 5.00.

In the case of `CCC(Nc1ncnc2[nH]cnc12)c1cc2cccc(C)c2c(=O)n1C(C)C` (centres unmarked) [Compound 219], the pIC50 on PI3K γ was above 5.00; at PI3K α, below 5.00; against PI3K δ, above 7.00; against PI3K β it was above 5.00.

In the case of `Cc1cccc2cc(Cn3nc(C#N)c4c(N)ncnc43)n(-c3ccccc3F)c(=O)c12` [Compound 169], the pIC50 is below 5.00 against PI3K γ, below 5.00 on PI3K α, above 7.00 against PI3K δ and below 5.00 at PI3K β.

Consider `Cc1cccc2cc([C@H](C)Nc3nc(N)ncc3C(N)=O)n(C3CC3)c(=O)c12` [Compound 282], for which the pIC50 against PI3K γ, against PI3K α, against PI3K δ and against PI3K β was below 5.00 in each case.

On to `CCc1nn(Cc2cc3cccc(C)c3c(=O)n2-c2ccccc2C)c2ncnc(N)c12` [Compound 294], for which the pIC50 is above 5.00 on PI3K γ, below 5.00 on PI3K α, above 7.00 at PI3K δ and below 5.00 against PI3K β.

Turning to `CC(=O)Nc1nc2ccc(-c3nn(Cc4cc5cccc(C)c5c(=O)n4-c4ccccc4)c4ncnc(N)c34)cc2[nH]1` [Compound 304], the pIC50 against PI3K γ is above 7.00; against PI3K α it was below 5.00; on PI3K β it was below 5.00.

As for `CC(=O)Nc1nc2ccc(-c3nn(Cc4cc5cccc(C)c5c(=O)n4C)c4ncnc(N)c34)cc2s1` [Compound 153], the pIC50 was above 7.00 at PI3K α, above 7.00 at PI3K δ and above 6.00 against PI3K β.

As for `Cc1cccc2cc(Cn3nc(-c4cc(O)cc(F)c4)c4c(N)ncnc43)n(C3CCCCC3)c(=O)c12` [Compound 110], the pIC50 at PI3K α was below 5.00; on PI3K δ, above 7.00; on PI3K β it was above 5.00.

With `CC(=O)Nc1nc2ccc(-c3nn(Cc4cc5cccc(C)c5c(=O)n4-c4ccccc4C)c4ncnc(N)c34)cc2s1` [Compound 53], the pIC50 is above 7.00 at PI3K γ, above 6.00 at PI3K α and above 5.00 against PI3K β.

Regarding `CC(=O)Nc1nc2ccc(-c3nn(Cc4cc5cccc(Cl)c5c(=O)n4C4CC4)c4ncnc(N)c34)cc2s1` [Compound 156], the pIC50 against PI3K α, at PI3K δ and against PI3K β was above 7.00 throughout.

With `Cc1ccccc1-n1c(Cn2nc(-c3cnn(CCO)c3)c3c(N)ncnc32)cc2cccc(C)c2c1=O` [Compound 163], the pIC50 against PI3K γ is above 6.00; against PI3K α it was below 5.00; at PI3K β, below 5.00.

For `Cc1ccccc1-n1c(Cn2nc(C#C[C@H](C)O)c3c(N)ncnc32)cc2cccc(C)c2c1=O` [Compound 85], the pIC50 on PI3K α is below 5.00; at PI3K δ, above 6.00; on PI3K β it was above 5.00.

`Cc1ccccc1-n1c(CN(C)c2ncnc3[nH]cnc23)cc2cccc(C)c2c1=O` [Compound 184]: the negative-log IC50 (pIC50) against PI3K γ is above 5.00; at PI3K α, below 5.00; at PI3K β it was below 5.00.

Turning to `CC(=O)Nc1nc2ccc(-c3nn(Cc4cc5cccc(C)c5c(=O)n4C4CCC4)c4ncnc(N)c34)cc2s1` [Compound 159], the pIC50 on PI3K α was above 7.00; against PI3K δ, above 7.00; against PI3K β it was above 6.00.

Consider `CC(=O)Nc1nc2ccc(-c3nn(Cc4cc5cccc(C)c5c(=O)n4C(C)C)c4ncnc(N)c34)cc2s1` [Compound 154], for which the pIC50 at PI3K α was above 7.00; against PI3K δ it was above 7.00; on PI3K β, above 5.00.

Consider `Cc1cccc2cc(Cn3nc(-c4cccc(O)c4)c4c(N)ncnc43)n(C3CCCCC3)c(=O)c12` [Compound 111], for which the values for the pIC50 against PI3K α, at PI3K δ and on PI3K β were below 5.00, above 7.00 and above 5.00, respectively.

Take `Cc1ccccc1-n1c(Cn2nc(-c3cccc(O)c3)c3c(N)ncnc32)cc2cccc(C)c2c1=O` [Compound 13]: the pIC50 was above 7.00 on PI3K γ, below 5.00 against PI3K α and above 5.00 on PI3K β.

Turning to `CC(=O)Nc1nc2ccc(-c3nn(Cc4cc5cccc(F)c5c(=O)n4C(C)C)c4ncnc(N)c34)cc2s1` [Compound 158], the pIC50 was above 7.00 against PI3K α, above 7.00 against PI3K δ and above 5.00 against PI3K β.
